Three compounds from paper PMC3419814 (Bioorganic & medicinal chemistry, 2012) can be followed below.

The nature of this data set: logP from HPLC retention times. Format: physicochemical.
The compound `COC(=O)c1cn(-c2sc(Nc3cc(Cl)ccc3OC)nc2-c2sc(NC(=O)C(C)(C)C)nc2C)nn1` [compound 14, Methyl 1-(2-(5-chloro-2-methoxyphenylamino)-4′-methyl-2′-pivalamido-4,5′-bithiazol-5-yl)-1H-1,2,3-triazole-4-carboxylate] registered a chromatographic logP of 4.8 to 5.5.

`COc1ccc(Cl)cc1Nc1nc(-c2sc(NC(=O)C(C)(C)C)nc2C)c(-n2cc(C(=O)O)nn2)s1` [compound 15, 1-(2-(5-Chloro-2-methoxyphenylamino)-4′-methyl-2′-pivalamido-4,5′-bithiazol-5-yl)-1H-1,2,3-triazole-4-carboxylic acid] yielded a chromatographic logP of 4.8 to 5.5. Under `COc1ccc(Cl)cc1Nc1nc(-c2sc(NC(=O)C(C)(C)C)nc2C)c(-n2cc(CO)nn2)s1` [compound 13, N-(2-(5-Chloro-2-methoxyphenylamino)-5-(4-(hydroxyl-methyl)-1H-1,2,3-triazol-1-yl)-4′-methyl-4,5′-bithiazol-2′-yl)pivalamide] stands 4.8 to 5.5.
